Reference: ChEMBL document CHEMBL3132793, “Novel FK506 and FK520 analogues via mutasynthesis: mutasynthon scope and product characteristics” (Medchemcomm, 2013)
Converted amounts (≈) assume the structure as drawn.

Key:
[1] = Inhibition of calcineurin in human Jurkat cells assessed as inhibition of NFAT-mediated IL-2 production after 8 hrs by beta-lactamase reporter gene assay; format: cell-based
[2] = Half life in mouse liver microsomes; format: ADME, Microsome
[3] = Half life in human liver microsomes; format: ADME
[4] = Solubility of the compound in phosphate buffered saline; format: physicochemical
[5] = phosphate buffered saline, read-out: solubility

| Structure (SMILES) | IC50 [1] [nM] | half-life [2] [min] | half-life [3] [min] | solubility [4, 5] [µM] | solubility ([4]; buffer) [µM] |
| --- | --- | --- | --- | --- | --- |
| CC[C@@H]1/C=C(\C)C[C@H](C)C[C@H](OC)[C@H]2O[C@@](O)(C(=O)C(=O)N3CCCC[C@H]3C(=O)O[C@H](/C(C)=C/[C@H]3CC[C@H](O)CC3)[C@H](C)[C@@H](O)CC1=O)[C@H](C)C[C@@H]2OC | 0.249 | – | – | – | – |
| C=CC[C@@H]1/C=C(\C)C[C@H](C)C[C@H](OC)[C@H]2O[C@@](O)(C(=O)C(=O)N3CCCC[C@H]3C(=O)O[C@H](/C(C)=C/[C@H]3CC=CCC3)[C@H](C)[C@@H](O)CC1=O)[C@H](C)C[C@@H]2OC | 0.433 | 3 | 5.7 | 0.7 (≈ 0.529 µg/mL) | – |
| CC[C@@H]1/C=C(\C)C[C@H](C)C[C@H](OC)[C@H]2O[C@@](O)(C(=O)C(=O)N3CCCC[C@H]3C(=O)O[C@H](/C(C)=C/C3CCOCC3)[C@H](C)[C@@H](O)CC1=O)[C@H](C)C[C@@H]2OC | 0.461 | 7.6 | 1.8 | 13.4 (≈ 10 µg/mL) | – |
| C=CC[C@@H]1/C=C(\C)C[C@H](C)C[C@H](OC)[C@H]2O[C@@](O)(C(=O)C(=O)N3CCCC[C@H]3C(=O)O[C@H](/C(C)=C/[C@@H]3CC[C@@H](O)[C@H](OC)C3)[C@H](C)[C@@H](O)CC1=O)[C@H](C)C[C@@H]2OC [TACROLIMUS ANHYDROUS] | 0.056 | 22.1 | 2.4 | 42.4 (≈ 34.1 µg/mL) | – |

Further lines, results first:

| IC50 [1] [nM] | half-life [2] [min] | half-life [3] [min] | solubility [4, 5] [µM] | solubility ([4]; buffer) [µM] | Structure (SMILES) |
| --- | --- | --- | --- | --- | --- |
| 0.145 | 9 | 2.6 | 1.3 (≈ 1.01 µg/mL) | – | C=CC[C@@H]1/C=C(\C)C[C@H](C)C[C@H](OC)[C@H]2O[C@@](O)(C(=O)C(=O)N3CCCC[C@H]3C(=O)O[C@H](/C(C)=C/[C@H]3CC[C@H](O)CC3)[C@H](C)[C@@H](O)CC1=O)[C@H](C)C[C@@H]2OC |
| 0.082 | 11.3 | 3.2 | 35.6 (≈ 27.8 µg/mL) | – | CC[C@@H]1/C=C(\C)C[C@H](C)C[C@H](OC)[C@H]2O[C@@](O)(C(=O)C(=O)N3CCCC[C@H]3C(=O)O[C@H](/C(C)=C/[C@@H]3CC[C@@H](O)[C@@H](F)C3)[C@H](C)[C@@H](O)CC1=O)[C@H](C)C[C@@H]2OC |
| 0.072 | 3.8 | 3.1 | 86.5 (≈ 67.1 µg/mL) | – | CC[C@@H]1/C=C(\C)C[C@H](C)C[C@H](OC)[C@H]2O[C@@](O)(C(=O)C(=O)N3CCCC[C@H]3C(=O)O[C@H](/C(C)=C/[C@H]3CCCC(O)CC3)[C@H](C)[C@@H](O)CC1=O)[C@H](C)C[C@@H]2OC (stereo not given in full) |
| 0.283 | – | – | – | – | CO[C@H]1C[C@@H](C)C/C(C)=C/[C@@H](C)C(=O)C[C@H](O)[C@@H](C)[C@@H](/C(C)=C/[C@@H]2CC[C@@H](O)[C@@H](F)C2)OC(=O)[C@@H]2CCCCN2C(=O)C(=O)[C@]2(O)O[C@H]1[C@@H](OC)C[C@H]2C |
| 0.205 | 17.4 | 2.4 | – | 40.2 (≈ 31.8 µg/mL) | CC[C@@H]1/C=C(\C)C[C@H](C)C[C@H](OC)[C@H]2O[C@@](O)(C(=O)C(=O)N3CCCC[C@H]3C(=O)O[C@H](/C(C)=C/[C@@H]3CC[C@@H](O)[C@H](OC)C3)[C@H](C)[C@@H](O)CC1=O)[C@H](C)C[C@@H]2OC [ASCOMYCIN] |
